Source: PubChem BioAssay (NCI)
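Where inhibition never reached the appropriate level, the endpoint shown equals the highest concentration tested. Otherwise, values were interpolated linearly from a five-concentration, 48-hour dose response in 96-well plates. TGI: concentration producing complete growth inhibition.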

Tests used:
Experiment in all cases: NCI anticancer screen, dose series, 48 h
786-0 renal = tested on: 786-0 renal
A498 renal = tested on: A498 renal
A549 NSCLC = tested on: A549 NSCLC
ACHN renal = tested on: ACHN renal
BT-549 breast = tested on: BT-549 breast
CAKI-1 renal = tested on: CAKI-1 renal
CCRF-CEM leukemia = tested on: CCRF-CEM leukemia
COLO 205 colon = tested on: COLO 205 colon
DU-145 prostate = tested on: DU-145 prostate
EKVX NSCLC = tested on: EKVX NSCLC
HCC-2998 colon = tested on: HCC-2998 colon
HCT-116 colon = tested on: HCT-116 colon
HCT-15 colon = tested on: HCT-15 colon
HL-60(TB) leukemia = tested on: HL-60(TB) leukemia
HOP-62 NSCLC = tested on: HOP-62 NSCLC
HOP-92 NSCLC = tested on: HOP-92 NSCLC
HS 578T breast = tested on: HS 578T breast
HT29 colon = tested on: HT29 colon
IGROV1 ovarian = tested on: IGROV1 ovarian
K-562 leukemia = tested on: K-562 leukemia
KM12 colon = tested on: KM12 colon
LOX IMVI melanoma = tested on: LOX IMVI melanoma
M14 melanoma = tested on: M14 melanoma
MCF7 breast = tested on: MCF7 breast
MDA-MB-231 breast = tested on: MDA-MB-231 breast
MDA-MB-435 = tested on: MDA-MB-435
MDA-N = tested on: MDA-N
MOLT-4 leukemia = tested on: MOLT-4 leukemia
NCI-H226 lung = tested on: NCI-H226 lung
NCI-H23 lung = tested on: NCI-H23 lung
NCI-H460 lung = tested on: NCI-H460 lung
NCI-H522 lung = tested on: NCI-H522 lung
NCI/ADR-RES ovarian = tested on: NCI/ADR-RES ovarian
OVCAR-3 ovarian = tested on: OVCAR-3 ovarian
OVCAR-4 ovarian = tested on: OVCAR-4 ovarian
OVCAR-5 ovarian = tested on: OVCAR-5 ovarian
OVCAR-8 ovarian = tested on: OVCAR-8 ovarian
PC-3 prostate = tested on: PC-3 prostate
RPMI-8226 leukemia = tested on: RPMI-8226 leukemia
RXF 393 renal = tested on: RXF 393 renal
SF-268 CNS = tested on: SF-268 CNS
SF-295 CNS = tested on: SF-295 CNS
SF-539 CNS = tested on: SF-539 CNS
SK-MEL-2 melanoma = tested on: SK-MEL-2 melanoma
SK-MEL-28 melanoma = tested on: SK-MEL-28 melanoma
SK-MEL-5 melanoma = tested on: SK-MEL-5 melanoma
SK-OV-3 ovarian = tested on: SK-OV-3 ovarian
SN12C renal = tested on: SN12C renal
SNB-19 CNS = tested on: SNB-19 CNS
SNB-75 CNS = tested on: SNB-75 CNS
SR leukemia = tested on: SR leukemia
SW-620 colon = tested on: SW-620 colon
T-47D breast = tested on: T-47D breast
TK-10 renal = tested on: TK-10 renal
U251 CNS = tested on: U251 CNS
UACC-257 melanoma = tested on: UACC-257 melanoma
UACC-62 melanoma = tested on: UACC-62 melanoma
UO-31 renal = tested on: UO-31 renal
MALME-3M melanoma = tested on: MALME-3M melanoma

Structure (SMILES): COC(=O)[C@]12CC[C@H]3CC[C@H]([C@H]31)[C@H](c1ccccc1)N2
- TGI (786-0 renal): 29.4 µM
- TGI (A498 renal): 31.9 µM
- TGI (A549 NSCLC): 37.3 µM
- TGI (ACHN renal): 31.4 µM
- TGI (BT-549 breast): 34.3 µM
- TGI (CAKI-1 renal): 41.4 µM
- TGI (CCRF-CEM leukemia): 95.9 µM
- TGI (COLO 205 colon): 30.8 µM
- TGI (DU-145 prostate): 47.8 µM
- TGI (EKVX NSCLC): 33.1 µM
- TGI (HCC-2998 colon): 26.8 µM
- TGI (HCT-116 colon): 29.5 µM
- TGI (HCT-15 colon): 38.4 µM
- TGI (HL-60(TB) leukemia): 47.6 µM
- TGI (HOP-62 NSCLC): 33.3 µM
- TGI (HOP-92 NSCLC): 30.3 µM
- TGI (HS 578T breast): 49.8 µM
- TGI (HT29 colon): 29.5 µM
- TGI (IGROV1 ovarian): 34.3 µM
- TGI (K-562 leukemia): 53.4 µM
- TGI (KM12 colon): 39.8 µM
- TGI (LOX IMVI melanoma): 32.1 µM
- TGI (M14 melanoma): 32.7 µM
- TGI (MCF7 breast): 31.2 µM
- TGI (MDA-MB-231 breast): 30.6 µM
- TGI (MDA-MB-435): 34.6 µM
- TGI (MDA-N): 34.9 µM
- TGI (MOLT-4 leukemia): 56.5 µM
- TGI (NCI-H226 lung): 31.6 µM
- TGI (NCI-H23 lung): 37.2 µM
- TGI (NCI-H460 lung): 31.2 µM
- TGI (NCI-H522 lung): 37.7 µM
- TGI (NCI/ADR-RES ovarian): 33.4 µM
- TGI (OVCAR-3 ovarian): 29.3 µM
- TGI (OVCAR-4 ovarian): 31.6 µM
- TGI (OVCAR-5 ovarian): 31.4 µM
- TGI (OVCAR-8 ovarian): 37 µM
- TGI (PC-3 prostate): 38.7 µM
- TGI (RPMI-8226 leukemia): 47.9 µM
- TGI (RXF 393 renal): 30.9 µM
- TGI (SF-268 CNS): 41.5 µM
- TGI (SF-295 CNS): 32.3 µM
- TGI (SF-539 CNS): 30.6 µM
- TGI (SK-MEL-2 melanoma): 28.8 µM
- TGI (SK-MEL-28 melanoma): 52.2 µM
- TGI (SK-MEL-5 melanoma): 27.9 µM
- TGI (SK-OV-3 ovarian): 77.7 µM
- TGI (SN12C renal): 29.5 µM
- TGI (SNB-19 CNS): 47.3 µM
- TGI (SNB-75 CNS): 58.1 µM
- TGI (SR leukemia): 38.8 µM
- TGI (SW-620 colon): 53.2 µM
- TGI (T-47D breast): 50.3 µM
- TGI (TK-10 renal): 32 µM
- TGI (U251 CNS): 31.4 µM
- TGI (UACC-257 melanoma): 29.6 µM
- TGI (UACC-62 melanoma): 29.1 µM
- TGI (UO-31 renal): 31.2 µM

Structure (SMILES): CCCC[C@H]1[C@@H](OCOc2ccccc2)COC(=O)N1[C@H](C)c1ccccc1
- TGI (A498 renal): 29.4 µM
- TGI (A549 NSCLC): 28.4 µM
- TGI (ACHN renal): 47.8 µM
- TGI (BT-549 breast): 44.4 µM
- TGI (CAKI-1 renal): 30.5 µM
- TGI (CCRF-CEM leukemia): 68.8 µM
- TGI (COLO 205 colon): > 100 µM
- TGI (DU-145 prostate): 53.3 µM
- TGI (EKVX NSCLC): 85.2 µM
- TGI (HCC-2998 colon): 35.8 µM
- TGI (HCT-116 colon): 20.8 µM
- TGI (HCT-15 colon): 44.6 µM
- TGI (HL-60(TB) leukemia): 59.4 µM
- TGI (HOP-62 NSCLC): 29.8 µM
- TGI (HOP-92 NSCLC): 54 µM
- TGI (HS 578T breast): 52.8 µM
- TGI (HT29 colon): > 59 µM
- TGI (IGROV1 ovarian): > 61.8 µM
- TGI (K-562 leukemia): > 100 µM
- TGI (KM12 colon): 33.5 µM
- TGI (LOX IMVI melanoma): 70.7 µM
- TGI (M14 melanoma): 31.2 µM
- TGI (MALME-3M melanoma): 33.5 µM
- TGI (MCF7 breast): 26.7 µM
- TGI (MDA-MB-231 breast): 37.3 µM
- TGI (MDA-MB-435): 38.5 µM
- TGI (MDA-N): 32.4 µM
- TGI (MOLT-4 leukemia): > 60.4 µM
- TGI (NCI-H226 lung): > 100 µM
- TGI (NCI-H23 lung): > 58.2 µM
- TGI (NCI-H460 lung): 32.1 µM
- TGI (NCI-H522 lung): 29.2 µM
- TGI (NCI/ADR-RES ovarian): > 66.1 µM
- TGI (OVCAR-3 ovarian): 27.8 µM
- TGI (OVCAR-4 ovarian): 43.9 µM
- TGI (OVCAR-5 ovarian): 43.6 µM
- TGI (OVCAR-8 ovarian): > 100 µM
- TGI (PC-3 prostate): 23.4 µM
- TGI (RPMI-8226 leukemia): 60.1 µM
- TGI (RXF 393 renal): 47.6 µM
- TGI (SF-268 CNS): 38.7 µM
- TGI (SF-295 CNS): 50.6 µM
- TGI (SK-MEL-2 melanoma): 33.3 µM
- TGI (SK-MEL-28 melanoma): 71.1 µM
- TGI (SK-MEL-5 melanoma): 16.9 µM
- TGI (SK-OV-3 ovarian): > 56.1 µM
- TGI (SN12C renal): 21.9 µM
- TGI (SNB-19 CNS): > 55 µM
- TGI (SNB-75 CNS): 26.9 µM
- TGI (SR leukemia): > 80.9 µM
- TGI (SW-620 colon): > 100 µM
- TGI (T-47D breast): > 40.4 µM
- TGI (TK-10 renal): 39 µM
- TGI (U251 CNS): 42.3 µM
- TGI (UACC-257 melanoma): 29.5 µM
- TGI (UACC-62 melanoma): 30.2 µM
- TGI (UO-31 renal): > 45.1 µM
